Measurements taken from publication PMC12419922, “Myristoylated Cathelicidin-DM Fused With ANG1-7: A Novel Self-Assembling Antimicrobial Peptide for the Treatment and Mechanism of Diabetic Infected Wounds” (Journal of Diabetes Research, 2025).
Where a SMILES comes first, the peptide text is derived from it.

Key:
HUVECs [1] = test: Scratch wound healing assay; type: cell-based, human; conditions: HG + LPS, 20 μg/mL, n = 3; for wound healing rate (scratch assay): after 12 h; for healing area (scratch assay): at 48 h
Method: In a 6-well plate, HUVECs (2 × 10^5 cells/well) were seeded. The cells were starved in serum-free medium for 12 h, and then, a scratch was made vertically using a 200-μL pipette tip. […]

HUVECs [2] = test: Tube formation (angiogenesis) on Matrigel; type: cell-based, human; conditions: 9 h, n = 3
Method: The formation of vascular structure was observed by matrix glue experiment, and the angiogenesis ability was evaluated in Matrigel stent (Corning, New York). After treatment in each group, 300 μL (2 × 10^5 cells/mL) HUVECs were digested and inoculated into a 24-well plate containing Matrigel scaffold. After 9 h, the formation image of the tube was photographed.

HUVECs [3] = test: MDA, thiobarbituric acid method; type: cell-based, human; conditions: HUVEC supernatant, HG + LPS (HG + LPS increased by 1.65 times); n = 3
Method: The level of MDA was determined by the thiobarbituric acid (TBA) method. Briefly, 100 μL of cell supernatant was mixed with 200 μL of a 10% trichloroacetic acid solution of 0.67% TBA. The mixture was incubated at 95°C for 30 min, cooled on ice, and centrifuged at 12,000 × g at 4°C for 10 min. The absorbance of the supernatant was measured at 532 nm using an enzyme-labeled instrument. The experiments were repeated three times.

HUVECs [4] = test: NO secretion, Griess reaction; type: cell-based, human; conditions: HG + LPS (HG + LPS 0.5 times the original level), n = 3
Method: NO levels were determined using the Griess reaction. Briefly, 100 μL of cell culture supernatant was mixed with an equal volume of Griess reagent and incubated at room temperature in the dark for 30 min. The absorbance of the reaction mixture was measured at 540 nm using a microplate reader. Sodium nitrite (NaNO2) was used as a standard to generate a calibration curve, and the NO concentration in the samples was calculated accordingly. All experiments were independently performed in triplicate to ensure data reliability and reproducibility.

[5] = tested on: S. aureus (ATCC 25923) infected diabetic wound; test: Diabetic mouse S. aureus-infected full-thickness skin wound model; conditions: for wound healing rate: 7th day, 20 μg/mL in PBS, 200 μL subcutaneously for 3 days, n = 4
Method: BALB/c male mice are from the Experimental Animal Center of Air Force Military Medical University. One group was fed a normal diet, and the other five groups were fed a high-fat diet for 4 weeks and then injected with 35 mg/kg streptozotocin (STZ, 35 mg/kg, Sigma) intraperitoneally for 3 days. […] After intraperitoneal injection of pentobarbital sodium (1%, […]), the dorsal hair of each animal was shaved off, and a circular full-thickness skin wound was created on the back using a 10-mm sterile mouse punch. S. aureus (ATCC 25923) was used to infect the wound site of mice, and a full-thickness wound infection model of mice was established. S. aureus was first resuscitated by operation in a biological ultra-clean table. A single colony was picked and incubated in LB medium at 37°C and 200 rpm. The concentration of the above S. aureus solution was adjusted to 1 × 10^8 CFU/mL to infect the wound of mice. Then, 24 h after S. aureus infection, three drugs, DM (20 μg/mL), ANG1-7 (20 μg/mL), and MYR-DM-ANG1-7 (20 μg/mL), were dissolved in PBS buffer, and 200 μL was injected subcutaneously for 3 days. After drug injection, the wound pus was diluted and coated with plate culture to observe the colony situation. The gross specimen imaging system (GF-7A, China) was used to record the wounds of mice on the same day and every other day after the formation of the wounds. The rubber ring with adhesive backing was used to fix the wound and prevent it from shrinking. ImageJ analysis software (NIH, Bethesda, MD, United States) was used to calculate and analyze the wound area. After 0, 3, 7, 10, and 14 days, the size of the infected wound was evaluated by rubber ring. The wound closure was measured as follows: the wound healing rate (%) = [W0 − Wn]/W0 × 100%, where W0 and Wn represent the wound area on the 0th and nth days, respectively (n = 4).
On the 14th day, the skin tissue was fixed in 4% paraformaldehyde solution, dehydrated, embedded in paraffin, sliced, and stained with hematoxylin–eosin (HE) and Masson. Skin tissue sections on Day 7 were immunofluorescently stained using rabbit anti-mouse CD31 (Cell Signaling Technology) and α-SMA (Cell Signaling Technology), and all stained sections were observed under the slide scanner (Aperio AT 2; Leica Biosystems, Germany).

[6] = tested on: PI3K/AKT/eNOS signaling pathway, MasR in HUVECs; test: Western blot of PI3K/AKT/eNOS signaling pathway and MasR; type: cell-based, human; conditions: inhibitor group
Method: After the specified treatments, HUVECs were harvested using a cell scraper and lysed in cell lysis buffer (Wuhan Boster Biological Engineering Co., Ltd.) for 30 min at 4°C. Total protein was quantified using a BCA protein assay kit. Lysate (20 μg) from each sample was separated by 10% sodium dodecyl sulfate–polyacrylamide gel electrophoresis (SDS-PAGE) and then transferred to a polyvinylidene fluoride (PVDF) membrane. The membrane was blocked with a fresh blocking buffer containing 5% skim milk in Tris-buffered saline with 0.1% Tween 20 (TBS-T) for 2 h at room temperature and then incubated with primary antibodies against AKT (1:1000 dilution, #4691, Cell Signaling Technology), p-AKT (1:2000 dilution, #4060, Cell Signaling Technology), PI3K (1:1000 dilution, ab191606, Abcam), p-PI3K (1:1000 dilution, ab278545, Abcam), eNOS (1:1000 dilution, #32027, Cell Signaling Technology), p-eNOS (1:1000 dilution, ab215717, Abcam), and Mas (1:1000 dilution, #85003-1-RR, Proteintech) overnight at 4°C with shaking. The membrane was washed with TBS-T for 15 min and then incubated with horseradish peroxidase (HRP)–conjugated goat anti-rabbit secondary antibody (Wuhan Sanying Biotechnology Co., Ltd.) at a 1:2000 dilution in TBS-T and 3% skim milk for 90 min at room temperature. The membrane was washed three times with TBS-T, each for 15 min, and the immune reaction signals were detected using an ECL detection method. Protein bands were detected using a chemiluminescent gel imaging system (Bio-Rad Lab, China). Protein expression was quantitatively analyzed using ImageJ software (National Institutes of Health, Bethesda, MD, United States), and the experiment was repeated three times.

Compound	wound healing rate (scratch assay) (HUVECs [1]) [%]	healing area (scratch assay) (HUVECs [1]) [%]	length of formed blood vessels (HUVECs [2]; HG + LPS (HG + LPS group 0.4 times)) [times]	secretion of MDA, increased by (HUVECs [3]) [times]	NO secretion in cell supernatant, increases to (HUVECs [4]) [times]	wound healing rate [5] [%]	fluorescence intensity of α-SMA ([5]; seventh day, vs the diabetes infection group, p < 0.01)	increase in p-PI3K, p-AKT, and p-eNOS levels [6]	main connections of formed blood vessels (HUVECs [2]; HG + LPS (HG + LPS group 0.3 times)) [times]	secretion of MDA, decreased by (HUVECs [3]) [times]
CC[C@H](C)[C@H](NC(=O)[C@H](CC(C)C)NC(=O)[C@@H](NC(=O)[C@H](Cc1ccc(O)cc1)NC(=O)CNC(=O)CNC(=O)[C@H](CCCNC(=N)N)NC(=O)[C@H](CC(C)C)NC(=O)[C@H](CCCCN)NC(=O)[C@H](CC(C)C)NC(=O)[C@H](CCCCN)NC(=O)[C@H](CS)NC(=O)[C@H](CC(C)C)NC(=O)[C@H](Cc1c[nH]c2ccccc12)NC(=O)CNC(=O)[C@H](CCCCN)NC(=O)[C@H](CS)NC(=O)[C@@H]1CCCN1C(=O)[C@H](CCCCN)NC(=O)[C@H](CCCNC(=N)N)NC(=O)[C@H](CCCNC(=N)N)NC(=O)[C@H](CO)NC(=O)[C@@H](N)CO)[C@@H](C)O)C(=O)NCC(=O)N[C@@H](CO)C(=O)N[C@@H](C)C(=O)N[C@H](C(=O)N[C@@H](CC(N)=O)C(=O)N[C@@H](CC(C)C)C(=O)N[C@@H](CC(N)=O)C(=O)N[C@@H](CCCNC(=N)N)C(=O)N1CCC[C@H]1C(=O)N[C@H](C(=O)N[C@@H](Cc1ccc(O)cc1)C(=O)N[C@H](C(=O)N[C@@H](CCCNC(=N)N)C(=O)N[C@@H](C)C(=O)O)C(C)C)[C@@H](C)O)[C@@H](C)O [DM, cathelicidin-DM] (H-SSRRKPCKGWLCKLKLRGGYTLIGSATNLNRPTYVRA-OH; N-terminus and C-terminus assumed)	25.2	52.6	1.3	1.2	1.2	69.86	significantly higher	–	–	–
O=c1cc(N2CCOCC2)oc2c(-c3ccccc3)cccc12 [LY294002, reference compound]	–	–	–	–	–	–	–	significantly inhibited	–	–
DRVYIH [ANG1-7, angiotensin 1-7]	44.7	72.06	–	–	1.65	40.69	–	–	1.4	0.56
